Assay results: ChEMBL document CHEMBL5029166, “Development of BET inhibitors as potential treatments for cancer: A new carboline chemotype” (Bioorg Med Chem Lett, 2021)
Values after ≈ are worked out from the molar mass of the structure shown.

Tests used:
[1] = AUC in mouse at 3 mg/kg, po measured after 24 hrs; assay type: ADME, organism-based; parameters: route oral, dose 3 mg/kg, time 24 hrs; details: in vivo
[2] = Antiproliferative activity against human JJN-3R cells assessed as reduction in cell viability; assay type: functional, cell-based
[3] = Metabolic stability in dog liver microsomes assessed as half life measured upto 120 mins; assay type: ADME, Canis lupus familiaris, Microsome
[4] = biological target: Bromodomain-containing protein 4 (Homo sapiens, UniProt O60885); assay: Inhibition of BRD4 (unknown origin)
[5] = Metabolic stability in rat liver microsomes assessed as half life measured upto 120 mins; assay type: ADME, Microsome
[6] = Metabolic stability in human liver microsomes assessed as half life measured upto 120 mins; assay type: ADME, Microsome
[7] = Metabolic stability in mouse liver microsomes assessed as half life measured upto 120 mins; assay type: ADME, Microsome
[8] = Metabolic stability in monkey liver microsomes assessed as half life measured upto 120 mins; assay type: ADME, Microsome; details: macaca
[9] = Anticancer activity against human TNBC cancer tissue xenografted PDTX po dosed mouse model assessed as growth inhibition treated 5-day on/2-day off regimen for 2 weeks after 27 days of tumor implantation; assay type: functional; details: Breast carcinoma cell, 336 h, read-out: MED
[10] = Permeability of the compound by PAMPA; assay type: ADME; details: read-out: permeability
[11] = Anticancer activity against human TNBC cancer tissue xenografted PDTX mouse model assessed as tumor growth inhibition at 4 mg/kg, po treated 5-day on/2-day off regimen for 2 weeks after 27 days of tumor implantation; assay type: functional; details: Breast carcinoma cell, 336 h, read-out: TGI
[12] = Metabolic stability in rat liver microsomes assessed as compound remaining; assay type: ADME, Microsome
[13] = Metabolic stability in mouse liver microsomes assessed as compound remaining; assay type: ADME, Microsome
[14] = Metabolic stability in human liver microsomes assessed as compound remaining; assay type: ADME, Microsome
[15] = Solubility of the compound in pH 6.5 phosphate buffer; assay type: physicochemical

Compound	AUC at 24 h [1]	IC50 [2]	half-life [3]	IC50 [4]	half-life [5]	half-life [6]	half-life [7]	half-life [8]	minimal effective dose [9]	Papp [10]	inhibition in vivo at 4 mg/kg [11]	Stability [12]	Stability [13]	Stability [14]	solubility [15]
Cc1sc2c(c1C)C(c1ccc(Cl)cc1)=N[C@@H](CC(=O)OC(C)(C)C)c1nnc(C)n1-2	7.4 µM·h														
[2H]C([2H])([2H])c1nnn(C)c1-c1cc2c(cc1Cl)c1ncc(C(C)(C)O)cc1n2[C@H](c1ccccc1)C1CCOCC1		260 nM													
[2H]C([2H])([2H])c1nnn(C)c1-c1cc2c(cc1F)c1ncc(C(C)(C)O)cc1n2[C@@H](CCC)c1ncccc1F		2.4 nM	14 min	0.5 nM	37 min	74 min	53 min	36 min							
[2H]C([2H])([2H])c1nnn(C)c1-c1cc2c(cn1)c1ncc(C(C)(C)O)cc1n2[C@H](c1ccccc1)C1CCOCC1		22 nM	120 min		46 min	120 min	120 min	92 min							
[2H]C([2H])([2H])c1nnn(C)c1-c1cc2c(cc1F)c1ncc(C(C)(C)O)cc1n2[C@H](c1ncccc1F)C1CCOCC1	11.1 µM·h	5.3 nM	22 min	0.6 nM	87 min	95 min	32 min	21 min	4 mg/kg	55 ×10⁻⁶ cm/s	76%				
Cc1nnn(C)c1-c1ccc2c3ncc(C(C)(C)O)cc3n([C@H](c3ccccc3)C3CCOCC3)c2c1F		4.5 nM		4 nM								3%	72%	7%	
Cc1nnn(C)c1-c1cc2c(cc1F)c1ncc(C(C)(C)O)cc1n2[C@H](c1ccccc1)C1CCOCC1		6.2 nM	22 min	1.3 nM	7 min	25 min	21 min	9 min							
Cc1nnn(C)c1-c1ccc2c3ncc(C(C)(C)O)cc3n([C@H](c3ccccc3)C3CCOCC3)c2c1		1.8 nM	15 min	0.6 nM	3 min	7 min	11 min	4 min							
[2H]C([2H])([2H])c1nnn(C)c1-c1cc2c(cc1F)c1ncc(C(C)(C)O)cc1n2[C@H](c1cc(C)on1)C1CCOCC1		12 nM	53 min	0.6 nM	1 min	61 min	31 min	12 min		30 ×10⁻⁶ cm/s					
Cc1nnn(C)c1-c1cc(F)c2c3ncc(C(C)(C)O)cc3n([C@H](c3ccccc3)C3CCOCC3)c2c1		51 nM	29 min	0.7 nM	10 min	9 min	26 min	5 min							
[2H]C([2H])([2H])c1nnn(C)c1-c1cc2c(cc1F)c1ncc(C(C)(C)O)cc1n2[C@H](c1ccccc1)C1CCOCC1	10 µM·h	7.6 nM	46 min	0.4 nM	9 min	54 min	46 min	14 min		84 ×10⁻⁶ cm/s					13 µg/mL (≈ 25.2 µM)
Cc1nnn(C)c1-c1cnc2c3ccc(C(C)(C)O)cc3n([C@H](c3ccccc3)C3CCOCC3)c2c1 [EZOBRESIB]		3.6 nM	20 min	0.8 nM	40 min	36 min	23 min	11 min							
